According to paper PMC10464554 (Journal of Enzyme Inhibition and Medicinal Chemistry, 2023):

Legend:
[1] = target: NT650-Nps5 (recombinant SARS-CoV-2 main protease Nsp5) (Severe acute respiratory syndrome coronavirus 2, UniProt P0DTD1); assay: biochemical; assay type: binding
[2] = target: Nsp5; settings: cited from earlier work
[3] = system: Nsp5; settings: irreversible inhibitor of Nsp5; cited from earlier work
[4] = system: SARS-CoV-2; settings: replication of SARS-CoV-2 in Vero E6 cells; cited from earlier work
[5] = system: SARS-CoV-2; settings: Vero E6 cells, 72 h readout; cited from earlier work
[6] = system: SARS-CoV-2 BA.5 strain; assay type: cell-based
[7] = system: Vero E6 cells; settings: 200–0.1 µM, 24 h, MTT

O=c1oc2c(O)c(O)cc3c(=O)oc4c(O)c(O)cc1c4c23 [Ellagic acid (7), ellagic acid]
Kd [1]: 970 ± 140 nM | Binding Efficiency Index (BEI) ([1]; BEI = pKd/MW (kDa)): 19.9 | Dissociation constant (SPR) [2]: low micromolar

O=c1c(O)c(-c2cc(O)c(O)c(O)c2)oc2cc(O)cc(O)c12 [Myricetin (2), myricetin]
IC50 [3]: 630 ± 10 nM | EC50 [4]: 8000 nM | Antiviral SARS-CoV-2 activity (CPE inhibition) [5]: devoid of antiviral SARS-CoV-2 activity

CC(C)(C)[C@H](NC(=O)C(F)(F)F)C(=O)N1C[C@H]2[C@@H]([C@H]1C(=O)N[C@H](C#N)C[C@@H]1CCNC1=O)C2(C)C [Nirmatrelvir (1), Nirmatrelvir]
Viral replication (supernatant viral titre) [6]: significantly reduce the number of infective particles | Cell viability (cytotoxic effect) [7]: well-tolerated by Vero E6 cells at all the concentrations tested
